Values of other authors, collected in patent publication US10905651B1, “Zeinmersome nanocarriers for drug delivery to the liver” (King Abdulaziz University, priority 2020, dated 2021).

Legend:
AT2 receptors = target: T1, AT2 receptors (Homo sapiens, UniProt P50052); conditions: cited from earlier work
T1 sequence (P50052 1-363): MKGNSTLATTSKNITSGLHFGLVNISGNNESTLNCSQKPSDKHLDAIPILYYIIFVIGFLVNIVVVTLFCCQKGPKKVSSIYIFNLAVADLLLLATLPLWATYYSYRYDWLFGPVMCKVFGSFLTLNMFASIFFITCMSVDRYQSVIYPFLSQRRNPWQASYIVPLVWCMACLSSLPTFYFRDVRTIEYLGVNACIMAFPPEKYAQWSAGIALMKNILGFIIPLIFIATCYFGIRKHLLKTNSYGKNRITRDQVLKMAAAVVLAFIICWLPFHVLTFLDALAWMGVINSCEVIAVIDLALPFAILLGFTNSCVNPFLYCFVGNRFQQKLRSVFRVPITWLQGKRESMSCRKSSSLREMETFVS

AT4 receptors = conditions: cited from earlier work
[1] = tested on: methotrexate-induced intestinal mucositis; conditions: pretreatment with 0.5, 1.0, or 5.0 mg/kg; cited from earlier work

## CCCc1nc(C(C)(C)O)c(C(=O)OCc2oc(=O)oc2C)n1Cc1ccc(-c2ccccc2-c2nnn[nH]2)cc1 [OM, (5-methyl-2-oxo-1,3-dioxol-4-yl)methyl 5-(2-hydroxypropan-2-yl)-2-propyl-3-[[4-[2-(2H-tetrazol-5-yl)phenyl]phenyl]methyl]imidazole-4-carboxylate]
AT2 receptors
  antagonistic effects on the AT2 receptors: almost no antagonistic effects
AT4 receptors
  antagonistic effects on the AT4 receptors: almost no antagonistic effects
[1]
  enteropathy (diarrhea, weight loss, decreased sucrose activity): caused enteropathy
  inflammatory infiltration, vascular congestion, ulcerations, hemorrhagic areas; myeloperoxidase, IL-1β and TNF-α levels: decreased
